Test results from publication PMC4503722, “Novel Phenotypic Outcomes Identified for a Public Collection of Approved Drugs from a Publicly Accessible Panel of Assays” (PLoS ONE, 2015).
pEC50, pIC50: −log10 of the molar value. Read-outs that look alike come from different tables or passages of the source.

How the values were obtained:
[1] = molecular target: T1, hJAK2 (Homo sapiens, UniProt O60674); experiment: Cerep LANCE kinase assay hJAK2 (S1 assay 33); type: biochemical; conditions: for hJAK2 LANCE IC50/EC50: assay number 33
T1 construct: purchased Cerep (LANCE kinase assay platform, contract assay)
T1 sequence (O60674 whole entry): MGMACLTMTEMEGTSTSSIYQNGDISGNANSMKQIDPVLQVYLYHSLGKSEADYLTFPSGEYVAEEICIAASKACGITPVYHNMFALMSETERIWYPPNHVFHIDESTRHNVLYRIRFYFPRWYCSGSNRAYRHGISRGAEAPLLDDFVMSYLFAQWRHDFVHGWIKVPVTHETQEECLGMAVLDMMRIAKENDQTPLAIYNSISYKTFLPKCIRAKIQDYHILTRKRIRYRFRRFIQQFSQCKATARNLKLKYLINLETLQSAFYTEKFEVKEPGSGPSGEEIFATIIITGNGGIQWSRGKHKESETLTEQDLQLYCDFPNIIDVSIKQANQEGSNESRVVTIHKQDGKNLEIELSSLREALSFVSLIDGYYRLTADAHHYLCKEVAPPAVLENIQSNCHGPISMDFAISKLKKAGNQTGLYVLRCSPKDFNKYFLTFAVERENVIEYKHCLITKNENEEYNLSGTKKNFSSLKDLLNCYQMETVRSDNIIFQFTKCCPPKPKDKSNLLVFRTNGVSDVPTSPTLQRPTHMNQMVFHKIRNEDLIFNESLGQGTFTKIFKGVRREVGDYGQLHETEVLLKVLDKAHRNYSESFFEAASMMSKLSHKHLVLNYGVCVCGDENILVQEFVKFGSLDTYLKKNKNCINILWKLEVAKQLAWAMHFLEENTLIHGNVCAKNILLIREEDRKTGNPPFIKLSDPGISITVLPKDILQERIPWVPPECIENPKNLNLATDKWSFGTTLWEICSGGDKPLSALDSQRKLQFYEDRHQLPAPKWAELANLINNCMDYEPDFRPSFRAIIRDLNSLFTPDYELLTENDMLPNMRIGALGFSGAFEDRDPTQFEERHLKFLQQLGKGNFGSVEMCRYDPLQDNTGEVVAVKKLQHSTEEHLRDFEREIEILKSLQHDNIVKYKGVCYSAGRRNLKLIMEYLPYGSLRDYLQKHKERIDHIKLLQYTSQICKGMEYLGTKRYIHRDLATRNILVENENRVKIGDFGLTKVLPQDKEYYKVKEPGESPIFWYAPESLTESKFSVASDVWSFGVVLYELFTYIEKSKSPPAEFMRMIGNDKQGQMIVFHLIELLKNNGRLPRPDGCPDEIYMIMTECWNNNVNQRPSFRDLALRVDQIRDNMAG

[2] = tested on: HT-29; experiment: cells; type: cell-based; conditions: for Basal_Viability ATP HT-29 IC50/EC50: assay number 28
[3] = molecular target: T2, hFLT3 (Homo sapiens, UniProt P36888); experiment: Cerep LANCE kinase assay hFLT3 (S1 assay 35); type: biochemical; conditions: for hFLT3 LANCE IC50/EC50: assay number 35
T2 construct: purchased Cerep (LANCE kinase assay platform, contract assay)
T2 sequence (P36888 27-993): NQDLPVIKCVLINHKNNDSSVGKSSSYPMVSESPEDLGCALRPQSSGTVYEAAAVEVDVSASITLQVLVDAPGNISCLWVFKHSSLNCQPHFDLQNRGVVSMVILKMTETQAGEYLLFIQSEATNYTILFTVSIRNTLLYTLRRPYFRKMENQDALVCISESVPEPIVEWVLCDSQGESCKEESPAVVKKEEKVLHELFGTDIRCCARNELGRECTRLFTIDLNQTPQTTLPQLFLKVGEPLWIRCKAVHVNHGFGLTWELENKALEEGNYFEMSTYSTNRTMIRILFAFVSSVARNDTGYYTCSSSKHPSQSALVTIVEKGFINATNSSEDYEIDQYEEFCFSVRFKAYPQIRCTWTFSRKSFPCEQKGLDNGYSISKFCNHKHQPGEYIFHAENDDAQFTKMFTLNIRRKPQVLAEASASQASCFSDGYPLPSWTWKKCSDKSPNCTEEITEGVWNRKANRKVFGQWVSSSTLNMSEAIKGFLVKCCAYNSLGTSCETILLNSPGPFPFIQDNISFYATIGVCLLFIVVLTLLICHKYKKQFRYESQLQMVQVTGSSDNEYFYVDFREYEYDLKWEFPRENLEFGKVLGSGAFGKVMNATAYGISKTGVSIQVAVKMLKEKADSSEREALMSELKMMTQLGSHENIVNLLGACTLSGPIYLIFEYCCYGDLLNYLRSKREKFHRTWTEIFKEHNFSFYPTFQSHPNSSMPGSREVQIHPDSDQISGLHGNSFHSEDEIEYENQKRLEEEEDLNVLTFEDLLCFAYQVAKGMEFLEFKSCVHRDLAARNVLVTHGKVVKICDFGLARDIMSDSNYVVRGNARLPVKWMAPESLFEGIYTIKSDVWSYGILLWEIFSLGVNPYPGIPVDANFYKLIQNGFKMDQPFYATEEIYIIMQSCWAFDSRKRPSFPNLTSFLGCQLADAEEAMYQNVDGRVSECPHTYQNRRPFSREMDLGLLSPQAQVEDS

[4] = molecular target: T3, hp70S6K1 (RPS6KB1) (Homo sapiens, UniProt P23443); experiment: Cerep LANCE kinase assay hp70S6K1 (S1 assay 31); type: biochemical; conditions: for hp70S6K1 LANCE IC50/EC50: assay number 31
T3 construct: purchased Cerep (LANCE kinase assay platform, contract assay)
T3 sequence (P23443 whole entry): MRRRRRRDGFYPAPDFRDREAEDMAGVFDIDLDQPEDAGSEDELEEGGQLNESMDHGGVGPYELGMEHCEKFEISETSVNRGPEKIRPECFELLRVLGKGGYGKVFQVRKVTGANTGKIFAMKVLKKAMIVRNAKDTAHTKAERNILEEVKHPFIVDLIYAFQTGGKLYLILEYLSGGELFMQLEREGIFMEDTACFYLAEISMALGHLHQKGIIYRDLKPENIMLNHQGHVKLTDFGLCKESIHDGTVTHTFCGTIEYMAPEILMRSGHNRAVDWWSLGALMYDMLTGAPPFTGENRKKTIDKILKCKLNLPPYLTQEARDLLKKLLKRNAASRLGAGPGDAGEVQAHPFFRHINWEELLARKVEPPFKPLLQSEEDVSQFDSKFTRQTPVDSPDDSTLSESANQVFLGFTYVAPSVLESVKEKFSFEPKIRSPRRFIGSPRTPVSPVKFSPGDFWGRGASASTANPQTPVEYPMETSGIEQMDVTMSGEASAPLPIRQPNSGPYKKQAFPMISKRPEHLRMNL

[5] = tested on: DLD-1; experiment: cells; type: cell-based; conditions: for Basal_Viability ATP DLD-1 IC50/EC50: assay number 23
[6] = tested on: Colo320; experiment: cells; type: cell-based; conditions: for Basal_Viability ATP Colo 320 IC50/EC50: assay number 27
[7] = molecular target: T4, hKDR (Homo sapiens, UniProt P35968); experiment: Cerep LANCE kinase assay hKDR (S1 assay 32); type: biochemical; conditions: for hKDR LANCE IC50/EC50: assay number 32
T4 construct: purchased Cerep (LANCE kinase assay platform, contract assay)
T4 sequence (P35968 20-1356): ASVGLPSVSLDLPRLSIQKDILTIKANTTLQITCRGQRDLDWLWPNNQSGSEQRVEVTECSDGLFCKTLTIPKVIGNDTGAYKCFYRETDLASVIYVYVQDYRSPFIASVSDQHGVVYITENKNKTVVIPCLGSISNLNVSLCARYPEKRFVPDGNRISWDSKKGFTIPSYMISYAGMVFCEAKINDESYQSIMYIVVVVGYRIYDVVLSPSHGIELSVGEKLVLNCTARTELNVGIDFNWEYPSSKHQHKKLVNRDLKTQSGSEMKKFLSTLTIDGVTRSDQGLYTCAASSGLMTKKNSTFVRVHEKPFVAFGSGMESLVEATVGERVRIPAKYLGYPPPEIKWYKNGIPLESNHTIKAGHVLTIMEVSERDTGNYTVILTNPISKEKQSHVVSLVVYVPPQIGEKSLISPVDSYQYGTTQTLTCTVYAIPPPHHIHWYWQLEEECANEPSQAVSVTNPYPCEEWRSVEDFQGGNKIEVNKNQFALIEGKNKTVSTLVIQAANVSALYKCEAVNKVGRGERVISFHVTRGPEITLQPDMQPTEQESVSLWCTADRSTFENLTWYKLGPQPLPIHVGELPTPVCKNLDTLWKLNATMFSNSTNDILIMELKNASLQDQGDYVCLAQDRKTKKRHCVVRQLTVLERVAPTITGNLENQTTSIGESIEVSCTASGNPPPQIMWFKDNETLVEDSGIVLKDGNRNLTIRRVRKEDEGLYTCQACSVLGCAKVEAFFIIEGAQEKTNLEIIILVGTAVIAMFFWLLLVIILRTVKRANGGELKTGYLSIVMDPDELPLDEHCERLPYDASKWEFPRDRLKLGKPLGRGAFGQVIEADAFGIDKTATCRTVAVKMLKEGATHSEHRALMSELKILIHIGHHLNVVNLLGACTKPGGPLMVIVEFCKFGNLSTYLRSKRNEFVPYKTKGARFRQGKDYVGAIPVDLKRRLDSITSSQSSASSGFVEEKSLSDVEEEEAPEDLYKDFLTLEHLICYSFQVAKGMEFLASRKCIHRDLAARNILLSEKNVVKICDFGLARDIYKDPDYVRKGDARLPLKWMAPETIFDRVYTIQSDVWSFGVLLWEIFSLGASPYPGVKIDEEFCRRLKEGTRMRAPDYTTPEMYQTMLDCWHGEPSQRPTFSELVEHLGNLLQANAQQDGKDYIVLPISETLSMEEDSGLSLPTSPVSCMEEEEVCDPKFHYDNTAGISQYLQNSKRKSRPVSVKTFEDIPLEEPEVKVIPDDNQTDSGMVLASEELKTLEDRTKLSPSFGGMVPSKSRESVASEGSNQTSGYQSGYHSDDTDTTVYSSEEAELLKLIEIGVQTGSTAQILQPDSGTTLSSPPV

[8] = tested on: endothelial tube formation in co-cultures of ECFCs and ADSCs treated with VEGF; experiment: cells; type: cell-based, human
[9] = tested on: HCT116; experiment: cells; type: cell-based; conditions: for Basal_Viability ATP HCT116 IC50/EC50: assay number 25, basal
[10] = tested on: RKO; experiment: cells; type: cell-based; conditions: for Basal_Viability ATP RKO IC50/EC50: assay number 29
[11] = molecular target: T5, hGSK3b (Homo sapiens, UniProt P49841); experiment: Cerep LANCE kinase assay hGSK3b (S1 assay 34); type: biochemical; conditions: for hGSK3b LANCE IC50/EC50: assay number 34
T5 construct: purchased Cerep (LANCE kinase assay platform, contract assay)
T5 sequence (P49841 whole entry): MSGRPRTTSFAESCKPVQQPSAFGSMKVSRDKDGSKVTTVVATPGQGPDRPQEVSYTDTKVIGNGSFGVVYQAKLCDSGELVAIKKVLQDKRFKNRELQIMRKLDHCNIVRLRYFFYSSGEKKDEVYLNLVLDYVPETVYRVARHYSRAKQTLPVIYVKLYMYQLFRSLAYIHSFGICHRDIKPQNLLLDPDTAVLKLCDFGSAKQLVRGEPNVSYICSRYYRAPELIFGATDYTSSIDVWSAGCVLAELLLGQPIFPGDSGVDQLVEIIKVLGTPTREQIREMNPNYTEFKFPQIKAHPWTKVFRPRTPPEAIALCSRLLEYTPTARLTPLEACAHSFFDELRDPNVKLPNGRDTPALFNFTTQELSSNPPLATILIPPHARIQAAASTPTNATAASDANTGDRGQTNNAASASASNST

[12] = tested on: HCT116 cells treated with a GSK3β inhibitor; experiment: cells; type: cell-based; conditions: for GSK3b inh pretreated_Viability ATP HCT116 IC50/EC50: assay number 26, GSK3b inhibitor pretreated
[13] = tested on: HeLa cells; experiment: cells; type: cell-based; conditions: for Hela CellCycMod PI 2N IC50/EC50: assay number 14; for Hela CellCycMod PI 4N IC50/EC50: assay number 16; for Hela CellCycMod PI MI IC50/EC50: assay number 17; for Hela CellCycMod PI Cell Number IC50/EC50: assay number 18; for pEC50: Homo sapiens, HeLa, read-out: CellCycle G2/M;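 on Hela CellCycMod PI 4N summarized IC50: value tracks stimulation of 4N DNA content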
[14] = tested on: ECFC/ADSC co-culture cell nuclei number
[15] = tested on: SNU-C1; experiment: cells; type: cell-based; conditions: for Basal_Viability ATP SNU-C1 IC50/EC50: assay number 30
[16] = tested on: SW480; experiment: cells; type: cell-based; conditions: for Basal_Viability ATP SW480 IC50/EC50: assay number 24
[17] = tested on: NCI-H716 cells; experiment: cells; type: cell-based, Human; conditions: Homo sapiens
[18] = tested on: INS-1E cells; experiment: cells; type: cell-based, rat; conditions: Rattus norvegicus, INS-1E
[19] = Homo sapiens, HCT-116, read-out: GSK3b inh pretreated_Viability ATP HCT116
[20] = Homo sapiens, HT-29, read-out: Basal_Viability ATP HT-29
[21] = Homo sapiens, DLD-1, read-out: Basal_Viability ATP DLD-1
[22] = Homo sapiens, SNU-C1, read-out: Basal_Viability ATP SNU-C1
[23] = Homo sapiens, SW480, read-out: Basal_Viability ATP SW480

COc1c(C)c2c(c(O)c1C/C=C(\C)CCC(=O)OCCN1CCOCC1)C(=O)OC2 [NCGC00159459-04]
hJAK2 LANCE IC50/EC50 [1]: > 20 µM
Basal_Viability ATP HT-29 IC50/EC50 ([2]; basal): > 20 µM
hFLT3 LANCE IC50/EC50 [3]: > 20 µM
hp70S6K1 LANCE IC50/EC50 [4]: > 20 µM
Basal_Viability ATP DLD-1 IC50/EC50 ([5]; basal): > 20 µM
Basal_Viability ATP Colo 320 IC50/EC50 ([6]; basal): 0.001 µM
hKDR LANCE IC50/EC50 [7]: > 20 µM
VEGF_ADSC\ECFC Angio CD31 TubeArea IC50/EC50 [8]: 1.2605 µM
Basal_Viability ATP HCT116 IC50/EC50 [9]: 0.0672 µM
Basal_Viability ATP RKO IC50/EC50 ([10]; basal): 0.1648 µM
hGSK3b LANCE IC50/EC50 [11]: > 20 µM
GSK3b inh pretreated_Viability ATP HCT116 IC50/EC50 [12]: 0.0498 µM
Hela CellCycMod PI 2N IC50/EC50 [13]: > 10 µM
Hela CellCycMod PI S Phase IC50/EC50 ([13]; assay number 15, S phase): 0.0147 µM
Hela CellCycMod PI 4N IC50/EC50 [13]: > 10 µM
Hela CellCycMod PI MI IC50/EC50 [13]: > 10 µM
Hela CellCycMod PI Cell Number IC50/EC50 [13]: > 10 µM
VEGF_ADSC\ECFC Angio Hoechst NucArea IC50/EC50 [14]: > 10 µM
Basal_Viability ATP SNU-C1 IC50/EC50 ([15]; basal): > 20 µM
Basal_Viability ATP SW480 IC50/EC50 ([16]; basal): 2.5974 µM

Nc1nc(=S)c2[nH]cnc2[nH]1 [NCGC00263442-01]
pIC50 ([1]; read-out: hJAK2 LANCE summarized IC50): < 4.70
pIC50 ([2]; read-out: Basal_Viability ATP HT-29 summarized IC50): 7.31
pIC50 ([3]; read-out: hFLT3 LANCE summarized IC50): < 4.70
pIC50 ([4]; read-out: hp70S6K1 LANCE summarized IC50): < 4.70
pIC50 ([5]; read-out: Basal_Viability ATP DLD-1 summarized IC50): 6.97
pIC50 ([6]; read-out: Basal_Viability ATP Colo 320 summarized IC50): 6.43
pIC50 ([7]; read-out: hKDR LANCE summarized IC50): < 4.70
pIC50 ([8]; read-out: VEGF_ADSC\ECFC Angio CD31 TubeArea summarized IC50): 6.21
pIC50 ([9]; read-out: Basal_Viability ATP HCT116 summarized IC50): 6.86
pIC50 ([10]; read-out: Basal_Viability ATP RKO summarized IC50): 6.46
pIC50 ([11]; read-out: hGSK3b LANCE summarized IC50): < 4.70
pIC50 ([12]; read-out: GSK3b inh pretreated_Viability ATP HCT116 summarized IC50): 6.79
pIC50 ([13]; read-out: Hela CellCycMod PI 2N summarized IC50): < 5.00
pIC50 ([13]; read-out: Hela CellCycMod PI 4N summarized IC50): < 5.00
pIC50 ([13]; read-out: Hela CellCycMod PI Cell Number summarized IC50): < 5.00
pIC50 ([13]; read-out: Hela CellCycMod PI MI summarized IC50): < 5.00
pIC50 ([13]; read-out: Hela CellCycMod PI S Phase summarized IC50): < 5.00
pIC50 ([14]; read-out: VEGF_ADSC\ECFC Angio Hoechst NucArea summarized IC50): < 5.00
pIC50 ([15]; read-out: Basal_Viability ATP SNU-C1 summarized IC50): 5.36
pIC50 ([16]; read-out: Basal_Viability ATP SW480 summarized IC50): 6.40

O=C(O)c1ccc(-n2nc(-c3ccccc3O)nc2-c2ccccc2O)cc1 [NCGC00263572-01]
hJAK2 LANCE IC50/EC50 [1]: 18.21 µM
Basal_Viability ATP HT-29 IC50/EC50 [2]: 0.5159 µM
hFLT3 LANCE IC50/EC50 [3]: > 20 µM
hp70S6K1 LANCE IC50/EC50 [4]: > 20 µM
Basal_Viability ATP DLD-1 IC50/EC50 [5]: 0.6507 µM
Basal_Viability ATP Colo 320 IC50/EC50 [6]: 0.4085 µM
hKDR LANCE IC50/EC50 [7]: > 20 µM
VEGF_ADSC\ECFC Angio CD31 TubeArea IC50/EC50 [8]: 2.0862 µM
Basal_Viability ATP HCT116 IC50/EC50 [9]: 0.4376 µM
Basal_Viability ATP RKO IC50/EC50 [10]: 0.1001 µM
hGSK3b LANCE IC50/EC50 [11]: > 20 µM
GSK3b inh pretreated_Viability ATP HCT116 IC50/EC50 [12]: 0.2423 µM
Hela CellCycMod PI 2N IC50/EC50 [13]: > 10 µM
Hela CellCycMod PI 4N IC50/EC50 [13]: > 10 µM
Hela CellCycMod PI MI IC50/EC50 [13]: > 10 µM
Hela CellCycMod PI Cell Number IC50/EC50 [13]: 5.678 µM
VEGF_ADSC\ECFC Angio Hoechst NucArea IC50/EC50 [14]: > 10 µM
Basal_Viability ATP SNU-C1 IC50/EC50 [15]: 0.2328 µM
Basal_Viability ATP SW480 IC50/EC50 [16]: 0.0776 µM

COc1ccc(-c2nc3ccc(C4=NNC(=O)CC4C)cc3[nH]2)cc1 (stereo not shown) [Pimobendan]
pIC50 ([1]; read-out: JAK2): < 4.70
pIC50 ([3]; read-out: FLT3): 5.29
pEC50 ([17]; IC50 / EC50, NCI-H716, read-out: GLP 1 Secretion): < 5.00
pIC50 ([4]; read-out: p70S6K1): < 4.70
pIC50 ([5]; Homo sapiens, DLD-1, basal, read-out: Basal_Viability ATP DLD-1): < 4.70
pIC50 ([7]; read-out: KDR): < 4.70
pEC50 ([18]; IC50 / EC50, read-out: Insulin Secretion): < 5.00
pIC50 ([8]; Homo sapiens, IC50 / EC50, endothelial tube area, ADSC/ECFC co-culture, read-out: Anti-Angiogenesis): 5.54
pIC50 ([9]; Homo sapiens, HCT-116, basal, read-out: Basal_Viability ATP HCT116): 4.80
pIC50 ([11]; read-out: GSK3b): < 4.70
pIC50 [12, 19]: < 4.70
pEC50 ([13]; IC50 / EC50): < 5.00
pIC50 ([16]; Homo sapiens, SW480, basal, read-out: Basal_Viability ATP SW480): < 4.70

O=c1[nH]c(=O)n([C@H]2C[C@H](O)[C@@H](CO)O2)cc1C(F)(F)F [Trifluridine]
pIC50 ([1]; kinase assay, read-out: JAK2): < 4.70
pIC50 [2, 20]: < 4.70
pIC50 ([3]; kinase assay, read-out: FLT3): < 4.70
pEC50 ([17]; NCI-H716, read-out: GLP 1 Secretion): < 5.00
pIC50 ([4]; kinase assay, read-out: p70S6K1): < 4.70
pIC50 [5, 21]: < 4.70
pIC50 ([6]; Homo sapiens, COLO 320, read-out: Basal_Viability ATP Colo 320): < 4.70
pIC50 ([7]; kinase assay, read-out: KDR): < 4.70
pEC50 ([18]; read-out: Insulin Secretion): < 5.00
pIC50 ([11]; kinase assay, read-out: GSK3b): < 4.70
pIC50 [12, 19]: 5.90
pEC50 [13]: < 5.00
pIC50 [15, 22]: < 4.70
pIC50 [16, 23]: < 4.70

CC(C)C[C@H](NC(=O)[C@H](Cc1ccccc1)NC(=O)c1cnccn1)B(O)O [bortezomib, reference compound]
pIC50 ([1]; read-out: JAK2): < 4.70
pIC50 ([2]; Homo sapiens, HT-29, 72 h, read-out: HT-29 viab. IC50): 8.52
pIC50 [2, 20]: 8.50
pIC50 ([3]; read-out: FLT3): < 4.70
pEC50 ([17]; NCI-H716, read-out: GLP1 sec. EC50): < 5.00
pIC50 ([4]; read-out: p70S6K1): < 4.70
pIC50 ([5]; Homo sapiens, DLD-1, 72 h, read-out: DLD-1 viab. IC50): 8.22
pIC50 [5, 21]: 8.20
pIC50 ([6]; Homo sapiens, COLO 320, 72 h, read-out: Colo320 viab. IC50): 5.55
pIC50 ([7]; read-out: KDR): < 4.70
pEC50 ([18]; read-out: Ins. sec. EC50): < 5.00
pIC50 ([9]; Homo sapiens, HCT-116, 72 h, read-out: HCT-116 viab. IC50): 8.40
pIC50 ([9]; Homo sapiens, HCT-116, read-out: Basal_Viability ATP HCT116): 8.44
pIC50 ([10]; Homo sapiens, RKO, 72 h, read-out: RKO viab. IC50): 8.10
pIC50 ([10]; Homo sapiens, RKO, read-out: Basal_Viability ATP RKO): 8.09
pIC50 ([11]; read-out: GSK3b): < 4.70
pIC50 ([12]; Homo sapiens, HCT-116, 72 h, read-out: HCT-116 (GSK3β) viab. IC50): 8.70
pIC50 [12, 19]: 8.62
pEC50 [13]: < 5.00
pIC50 ([15]; Homo sapiens, SNU-C1, 72 h, read-out: SNU-C1 viab. IC50): 8.52
pIC50 [15, 22]: 8.49
pIC50 ([16]; Homo sapiens, SW480, 72 h, read-out: SW480 viab. IC50): 8.30
pIC50 [16, 23]: 8.29
